Article PMC9012159, “A comparative biodistribution study of polymeric and lipid-based nanoparticles” (Drug Delivery and Translational Research, 2022)

Test: PEBCA pharmacokinetics and biodistribution study in rats (Cbz and metabolites by LC-MS/MS)
Type: in vivo, rat
Settings: for detection of possible Cbz metabolite in samples: all tissue and serum samples after PEBCA, LC-MS/MS; for peak concentration ratio organ:blood, fold higher for Cbz than for IR780-oleyl: highest doses
Protocol: Male Wistar rats were purchased at 8 weeks of age from Janvier Labs (France). They were housed in groups of four in individually ventilated cages in a specific pathogen-free environment at 22–23 °C and 50–60% relative humidity, on a 12-h light/dark cycle and with 70 air changes per hour and free access to food and sterile water. They were fed RM1 expanded pellets (Special Diets Services, Essex, UK), and the cages were enriched with housing, nesting material and gnaw sticks. All institutional and national guidelines for the care and use of laboratory animals were followed. Experiments were performed in Norway.
During all experiments, the animals were anaesthetized by inhalation of 2–3% isoflurane (Baxter, Deerfield, IL, USA). Anaesthesia was maintained with isoflurane in 0.4 L/min O2 and 0.6 L/min N2O.
To perform the pharmacokinetics and biodistribution study, the animals were separated into 2 groups according to dose: • Low dose PEBCA-Cbz, 0.5 mg/kg Cbz (4.4 mg/kg NPs) • High dose PEBCA-Cbz, 3.5 mg/kg Cbz (30.5 mg/kg NPs)
Details about the treatment groups are available in Table 1. Before injection, the particles were diluted in 0.9% saline to a concentration that corresponded to an injection volume of 2 mL/kg. In addition to the treated animals, 6 sham-treated (injected with 0.9% saline 2 mL/kg) animals were used. The sham-treated animals were euthanized at 2, 4 and 14 days, two at each time point. Animals were injected intravenously once.
Blood samples on time points 1–30 min and 4 h (Table 2) were performed on conscious animals, and all other blood samples were collected during exsanguination. The leg of the animal was shaved to expose the saphenous vein. Petrolatum was applied to the shaved area and the saphenous vein was punctured using a 19G needle. Into tubes containing blood clotting activator, 300–500 µL blood was collected (Microvette 500 Serum, Sarstedt AG & Co. KG, Germany). The tubes were turned 3–4 times, left for 60 min in upright position at room temperature to allow clot formation before centrifugation at 10 000 rcf for 5 min. The serum was immediately transferred to new tubes and stored at − 80 °C until LC–MS/MS analysis.
Cbz was quantified by LC–MS/MS, using the same instrumentation and chromatographic column as described for IR-780-oleyl quantification above. […] The flow rate was constant at 0.5 mL/min and the injection volume was 1 µL. […] Similarly, Cbz-d6 and docetaxel-d5 internal standards were monitored at m/z 864.4 → 583.2 and 835.5 → 554.3, respectively.
7-Methyl-docetaxel was purchased from SynZeal Research (Moraiya, India, catalogue number SZ-D031010), 10-methyl-docetaxel from Eos Med Chem (Jinan, China, custom synthesis), docetaxel from Sigma (Fluka, product number 01885) and 7-epi-docetaxel from Santa Cruz Biotechnology (Dallas, USA, product number SC-210610).
The Cbz-d6 and docetaxel-d5 internal standards were purchased from Toronto Research Chemicals (Toronto, Canada, catalogue numbers C046502 and D494423, respectively). A mix of the two internal standards was added to all standards and samples to yield a final concentration of 50 ng/mL.

Compound: CC(=O)O[C@@]12CO[C@@H]1C[C@@H](O)[C@@]1(C)C(=O)[C@H](O)C3=C(C)[C@@H](OC(=O)[C@H](O)[C@@H](NC(=O)OC(C)(C)C)c4ccccc4)C[C@@](O)([C@@H](OC(=O)c4ccccc4)[C@H]21)C3(C)C [7-epi-docetaxel]
- detection of possible Cbz metabolite in samples (rat): no 7-epi-docetaxel

Compound: CO[C@H]1C[C@H]2OC[C@@]2(OC(C)=O)[C@H]2[C@H](OC(=O)c3ccccc3)[C@]3(O)C[C@H](OC(=O)[C@H](O)[C@@H](NC(=O)OC(C)(C)C)c4ccccc4)C(C)=C([C@@H](O)C(=O)[C@]12C)C3(C)C [7-methyl-docetaxel]
- detection of possible Cbz metabolite in samples (rat): No 7-methyl-docetaxel was observed in any sample

Compound: CO[C@H]1C(=O)[C@@]2(C)[C@H]([C@H](OC(=O)c3ccccc3)[C@]3(O)C[C@H](OC(=O)[C@H](O)[C@@H](NC(=O)OC(C)(C)C)c4ccccc4)C(C)=C1C3(C)C)[C@]1(OC(C)=O)CO[C@@H]1C[C@@H]2O [10-m-Doc, 10-methyl-docetaxel]
- metabolite concentration in brain (Cbz metabolites after PEBCA, even at high dose administered, rat, negligible): 0.2 ng/g
- metabolite concentration in serum relative to Cbz in the same sample (after PEBCA, rat serum, found only up to the 15-min sampling point): ≤ 0.5%

Compound: CO[C@H]1C(=O)[C@]2(C)[C@@H](OC)C[C@H]3OC[C@@]3(OC(C)=O)[C@H]2[C@H](OC(=O)c2ccccc2)[C@]2(O)C[C@H](OC(=O)[C@H](O)[C@@H](NC(=O)OC(C)(C)C)c3ccccc3)C(C)=C1C2(C)C [Cbz, cabazitaxel]
- sampling point at which the organ:blood ratio reaches its peak (Cbz after PEBCA, in most cases, rat): 24 h
- dose response (concentration ratio normalized to injected dose) (Cbz after PEBCA, majority of organs and time points, rat): > 1
- dose response (concentration ratio normalized to injected dose) (Cbz after PEBCA, serum, rat): < 1
- Lung Cmax (Cbz measured after PEBCA high dose, 3.5 mg/kg Cbz (30.5 mg/kg NPs) i.v., rat, n = 4): 7593 ng/g
- measured concentration ratio all organs vs. blood, fold higher for cabazitaxel as compared to IR780-oleyl (all organs, rat (abstract)): more than 50 fold
- peak concentration ratio organ:blood, fold higher for Cbz than for IR780-oleyl (all tissues except liver, rat): at least 100 fold
- peak concentration ratio organ:blood, fold higher for Cbz than for IR780-oleyl (liver, rat): about 50 fold
- decrease in serum concentration of Cbz (within the first 4 h after PEBCA injection, rat serum): ~100 fold
